Active and inactive are the calls of the source.
Tests used:
[1] = molecular target: T1, SUMO-activating enzyme (Homo sapiens, UniProt Q9UBT2); assay: blockers of UBC9-mediated SUMO conjugation – biochemical, AlphaScreen, SUMOylation inhibitor project, confirmation (AID 2018); assay type: functional
[2] = molecular target: T1, SUMO-activating enzyme; assay: blockers of SAE1/SAE2–UBC9 SUMO transfer – biochemical, HTRF, uHTS, primary screen (AID 2006); assay type: protein-complex assay
[3] = molecular target: T2, Estrogen receptor (Homo sapiens, UniProt P03372);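 note: potency for inhibiting coactivator peptide recruitment to the receptor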
T2 sequence (P03372 whole entry): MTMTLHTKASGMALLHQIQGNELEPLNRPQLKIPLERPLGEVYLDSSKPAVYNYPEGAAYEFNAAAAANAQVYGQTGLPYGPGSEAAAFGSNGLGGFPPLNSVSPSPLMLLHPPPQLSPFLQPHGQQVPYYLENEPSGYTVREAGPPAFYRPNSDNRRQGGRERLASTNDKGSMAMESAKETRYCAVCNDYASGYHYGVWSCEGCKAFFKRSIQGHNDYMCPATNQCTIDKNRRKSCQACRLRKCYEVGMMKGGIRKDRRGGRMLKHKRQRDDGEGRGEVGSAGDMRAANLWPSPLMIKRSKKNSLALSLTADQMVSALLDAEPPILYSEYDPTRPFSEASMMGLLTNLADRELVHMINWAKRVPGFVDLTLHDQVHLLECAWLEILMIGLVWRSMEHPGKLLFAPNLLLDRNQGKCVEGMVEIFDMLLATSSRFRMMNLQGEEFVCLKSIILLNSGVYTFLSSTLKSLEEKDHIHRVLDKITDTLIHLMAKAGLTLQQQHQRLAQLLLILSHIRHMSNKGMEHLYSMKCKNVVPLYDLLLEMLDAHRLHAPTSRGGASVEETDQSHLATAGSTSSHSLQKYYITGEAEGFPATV

[4] = molecular target: Voltage-gated inwardly rectifying potassium channel KCNH2 (Homo sapiens, UniProt Q12809); conditions: Potency;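 note: confirmatory quantitative high-throughput screen measuring inhibition of hERG channel activity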
[5] = molecular target: Voltage-dependent T-type calcium channel subunit alpha-1H (Homo sapiens, UniProt O95180); assay type: functional;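 note: channel activity triggered by adding a high calcium stimulation buffer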
Voltage-dependent T-type calcium channel subunit alpha-1H, sequence (O95180 whole entry): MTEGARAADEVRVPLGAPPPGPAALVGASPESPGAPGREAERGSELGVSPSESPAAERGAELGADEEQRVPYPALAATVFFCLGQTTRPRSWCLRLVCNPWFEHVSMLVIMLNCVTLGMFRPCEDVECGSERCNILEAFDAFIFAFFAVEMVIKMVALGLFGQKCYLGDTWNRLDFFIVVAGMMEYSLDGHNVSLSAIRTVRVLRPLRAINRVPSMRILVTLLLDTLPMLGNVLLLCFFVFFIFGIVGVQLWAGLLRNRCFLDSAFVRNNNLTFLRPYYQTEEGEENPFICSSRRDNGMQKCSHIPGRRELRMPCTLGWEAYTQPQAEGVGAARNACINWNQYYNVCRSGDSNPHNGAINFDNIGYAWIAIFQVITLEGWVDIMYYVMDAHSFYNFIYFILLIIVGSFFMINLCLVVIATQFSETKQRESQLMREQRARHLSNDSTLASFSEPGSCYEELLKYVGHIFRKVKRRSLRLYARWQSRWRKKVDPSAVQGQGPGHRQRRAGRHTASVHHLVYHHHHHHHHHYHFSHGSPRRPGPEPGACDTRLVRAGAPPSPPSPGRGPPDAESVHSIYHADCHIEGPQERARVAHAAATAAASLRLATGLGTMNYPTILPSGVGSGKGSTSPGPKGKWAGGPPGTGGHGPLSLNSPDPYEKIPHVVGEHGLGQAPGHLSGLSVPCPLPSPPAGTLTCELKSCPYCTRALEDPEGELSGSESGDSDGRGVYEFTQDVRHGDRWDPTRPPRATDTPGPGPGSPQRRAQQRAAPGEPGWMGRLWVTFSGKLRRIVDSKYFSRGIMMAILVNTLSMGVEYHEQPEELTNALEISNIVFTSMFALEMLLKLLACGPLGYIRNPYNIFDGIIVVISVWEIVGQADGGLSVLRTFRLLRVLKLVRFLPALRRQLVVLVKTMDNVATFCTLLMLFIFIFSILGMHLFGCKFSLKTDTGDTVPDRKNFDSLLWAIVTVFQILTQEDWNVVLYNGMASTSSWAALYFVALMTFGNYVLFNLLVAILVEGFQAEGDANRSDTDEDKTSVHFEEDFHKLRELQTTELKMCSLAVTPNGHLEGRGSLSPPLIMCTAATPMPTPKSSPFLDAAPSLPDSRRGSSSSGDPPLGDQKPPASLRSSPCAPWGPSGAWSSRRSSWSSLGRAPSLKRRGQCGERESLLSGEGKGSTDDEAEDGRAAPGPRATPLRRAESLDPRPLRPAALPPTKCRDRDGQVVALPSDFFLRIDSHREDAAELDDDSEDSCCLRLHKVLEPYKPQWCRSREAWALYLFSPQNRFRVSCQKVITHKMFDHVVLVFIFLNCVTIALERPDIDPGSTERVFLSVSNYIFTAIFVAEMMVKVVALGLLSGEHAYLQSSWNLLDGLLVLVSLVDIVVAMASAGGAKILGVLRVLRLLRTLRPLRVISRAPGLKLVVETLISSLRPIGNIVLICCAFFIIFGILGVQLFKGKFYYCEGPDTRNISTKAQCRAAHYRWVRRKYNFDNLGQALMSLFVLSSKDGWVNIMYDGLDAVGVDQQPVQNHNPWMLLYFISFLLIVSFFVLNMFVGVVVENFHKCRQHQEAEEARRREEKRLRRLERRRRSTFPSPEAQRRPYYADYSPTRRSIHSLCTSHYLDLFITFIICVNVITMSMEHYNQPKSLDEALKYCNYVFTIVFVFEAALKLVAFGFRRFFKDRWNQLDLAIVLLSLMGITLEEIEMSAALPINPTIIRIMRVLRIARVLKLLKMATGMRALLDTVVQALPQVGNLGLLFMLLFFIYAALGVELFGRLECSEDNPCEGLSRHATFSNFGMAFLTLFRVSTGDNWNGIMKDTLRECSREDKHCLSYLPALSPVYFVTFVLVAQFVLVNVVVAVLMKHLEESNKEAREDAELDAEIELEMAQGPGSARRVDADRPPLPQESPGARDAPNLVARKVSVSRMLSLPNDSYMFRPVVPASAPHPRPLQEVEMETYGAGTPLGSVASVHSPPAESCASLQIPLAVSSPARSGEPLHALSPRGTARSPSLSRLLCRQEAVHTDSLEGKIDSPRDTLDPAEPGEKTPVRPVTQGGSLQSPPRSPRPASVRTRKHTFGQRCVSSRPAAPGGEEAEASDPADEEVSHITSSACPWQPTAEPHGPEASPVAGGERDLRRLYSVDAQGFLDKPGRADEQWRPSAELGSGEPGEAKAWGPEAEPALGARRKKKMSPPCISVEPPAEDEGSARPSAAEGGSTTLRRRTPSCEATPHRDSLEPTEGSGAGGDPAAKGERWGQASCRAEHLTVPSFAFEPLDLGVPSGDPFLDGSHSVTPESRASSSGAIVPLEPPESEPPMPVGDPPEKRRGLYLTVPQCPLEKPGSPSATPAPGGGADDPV

[6] = molecular target: Troponin, cardiac muscle (Homo sapiens, UniProt P19429+P45379+P63316); assay: Fluorescence-based biochemical high throughput dose response assay for activators of the calcium sensitivity of cardiac Regulated Thin Filaments (RTF). [Related pubchem assays (depositor defined):AID493008, AID493018, AID504382, AID504383]; assay type: protein-complex assay
[7] = molecular target: T3, Lysine-specific demethylase 4C (Homo sapiens, UniProt Q9H3R0); assay: inhibition of JMJD2C H3K9me3 demethylation – biochemical, DELFIA europium, cherry-picked samples, dose response (AID 488835); assay type: functional
T3 sequence (Q9H3R0 whole entry): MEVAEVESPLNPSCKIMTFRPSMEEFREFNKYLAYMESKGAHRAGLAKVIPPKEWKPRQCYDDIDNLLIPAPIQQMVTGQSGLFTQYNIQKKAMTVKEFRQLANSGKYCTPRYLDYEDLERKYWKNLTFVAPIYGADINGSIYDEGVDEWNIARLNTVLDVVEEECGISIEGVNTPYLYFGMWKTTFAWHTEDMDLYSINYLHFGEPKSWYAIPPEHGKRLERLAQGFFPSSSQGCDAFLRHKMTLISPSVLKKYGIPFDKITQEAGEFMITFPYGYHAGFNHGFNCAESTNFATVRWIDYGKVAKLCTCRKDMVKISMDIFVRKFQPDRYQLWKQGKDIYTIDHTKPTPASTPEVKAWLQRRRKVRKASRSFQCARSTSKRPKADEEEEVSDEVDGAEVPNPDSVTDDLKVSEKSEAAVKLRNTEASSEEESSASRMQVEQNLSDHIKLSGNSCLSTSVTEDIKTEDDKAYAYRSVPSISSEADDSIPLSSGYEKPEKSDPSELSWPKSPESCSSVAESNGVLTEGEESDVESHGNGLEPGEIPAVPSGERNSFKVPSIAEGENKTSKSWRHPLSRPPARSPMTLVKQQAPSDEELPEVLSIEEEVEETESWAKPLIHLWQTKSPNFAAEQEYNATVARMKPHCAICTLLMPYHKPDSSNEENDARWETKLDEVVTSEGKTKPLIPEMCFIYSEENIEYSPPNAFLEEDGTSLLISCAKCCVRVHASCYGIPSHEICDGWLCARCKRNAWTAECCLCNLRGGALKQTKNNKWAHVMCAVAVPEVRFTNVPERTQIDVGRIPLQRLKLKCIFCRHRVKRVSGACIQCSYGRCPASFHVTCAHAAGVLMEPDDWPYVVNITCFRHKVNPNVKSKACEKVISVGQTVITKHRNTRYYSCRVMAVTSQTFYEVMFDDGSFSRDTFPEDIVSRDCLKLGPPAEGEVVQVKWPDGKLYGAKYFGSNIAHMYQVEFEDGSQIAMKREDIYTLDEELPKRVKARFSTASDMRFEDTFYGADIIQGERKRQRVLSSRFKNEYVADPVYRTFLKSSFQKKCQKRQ

[8] = molecular target: T4, Short transient receptor potential channel 4 (Mus musculus, UniProt Q9QUQ5); assay: calcium entry via TRPC4 opening agents – cell-based, HEK293 TRPC4/mu-opioid, Fluo-4 calcium, dose response (AID 434937); assay type: functional
T4 sequence (Q9QUQ5 whole entry): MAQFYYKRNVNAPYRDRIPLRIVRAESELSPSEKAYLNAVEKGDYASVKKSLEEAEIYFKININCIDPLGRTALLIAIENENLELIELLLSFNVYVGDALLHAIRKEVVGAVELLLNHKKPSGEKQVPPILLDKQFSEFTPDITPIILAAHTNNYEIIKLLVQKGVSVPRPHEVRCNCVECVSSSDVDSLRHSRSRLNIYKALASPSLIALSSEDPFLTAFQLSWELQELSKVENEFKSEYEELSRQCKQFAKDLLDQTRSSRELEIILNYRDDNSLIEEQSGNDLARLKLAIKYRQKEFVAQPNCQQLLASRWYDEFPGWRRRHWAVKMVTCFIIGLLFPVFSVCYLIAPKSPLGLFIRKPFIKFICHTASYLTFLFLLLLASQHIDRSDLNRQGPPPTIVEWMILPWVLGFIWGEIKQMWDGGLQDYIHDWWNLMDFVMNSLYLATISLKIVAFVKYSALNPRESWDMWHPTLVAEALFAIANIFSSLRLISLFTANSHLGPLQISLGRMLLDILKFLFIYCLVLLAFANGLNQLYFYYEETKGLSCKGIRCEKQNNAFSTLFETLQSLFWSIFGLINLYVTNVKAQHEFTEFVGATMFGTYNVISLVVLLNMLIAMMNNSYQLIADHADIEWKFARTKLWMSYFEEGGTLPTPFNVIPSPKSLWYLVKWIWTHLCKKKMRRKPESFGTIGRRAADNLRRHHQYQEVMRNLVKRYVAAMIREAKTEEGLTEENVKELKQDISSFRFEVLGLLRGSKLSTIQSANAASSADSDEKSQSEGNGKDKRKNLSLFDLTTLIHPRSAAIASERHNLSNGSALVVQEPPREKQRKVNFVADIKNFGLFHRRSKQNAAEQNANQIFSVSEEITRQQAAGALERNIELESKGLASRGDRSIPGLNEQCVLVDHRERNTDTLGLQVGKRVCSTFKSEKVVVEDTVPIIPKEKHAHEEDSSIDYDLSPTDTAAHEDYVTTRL

[9] = luciferase reporter signal suppression in cells – H4 neuroglioma cells, luminescence, dose response (AID 1990); assay type: functional, cell-based
[10] = Luminescence Cell-Based Dose Response HTS to Identify Inhibitors of 5'UTR Stem-Loop Driven Prion Protein mRNA Translation in H4 Neuroglioblastoma Cells. [Related pubchem assays: 1827 (Project Summary), 1813 (Primary HTS)]; assay type: functional
[11] = alpha-synuclein stem-loop luciferase translation blockers – H4 neuroglioma cells, luminescence, confirmation (AID 1988); assay type: functional, cell-based
[12] = Trypanosoma cruzi growth suppression in host cells – NIH3T3 host cells, beta-gal luminescence, confirmation (AID 2044); assay type: functional, cell-based;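 note: intracellular parasites grown in NIH/3T3 mouse fibroblasts as host cells; luminescent beta-galactosidase reporter signal from transgenic T. cruzi replicating inside host cells; inhibitors lower the luminescence signal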
[13] = NIH3T3 cell viability loss – ATP luminescence, mouse fibroblasts, counter-screen, dose response (AID 2010); assay type: functional, cell-based;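 note: cells exposed to compound for about 90 hours before reading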
[14] = THP-1 cell cytotoxicity, dose response, cytotoxicity control for non-replicating M. tuberculosis project (AID 489025); assay type: functional
[15] = HepG2 cell cytotoxicity, dose response, cytotoxicity control for non-replicating M. tuberculosis project (AID 489018); assay type: functional; conditions: Mycobacterium tuberculosis
[16] = Vero E6 cell cytotoxicity, dose response, cytotoxicity control for non-replicating M. tuberculosis project, secondary assay (AID 492998); assay type: functional, VeroE6; conditions: Vero C1008
[17] = HEK-293T cell viability reduction – luminescence, B-cell screen hits, cytotoxicity control for BCR NF-kB inhibitor project, dose response (AID 489021); assay type: functional, cell-based;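 note: HEK-293T cells carrying an NF-kB luciferase reporter; cells exposed to compound for about 14 hours before viability readout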
[18] = cells; assay type: functional
[19] = molecular target: T5, Fatty acid synthase (Homo sapiens, UniProt P49327); assay: inhibition of human FAS-TE enzyme activity – biochemical, endpoint fluorescence intensity, uHTS hits, dose response (AID 624327); assay type: functional;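 note: fluorescence from hydrolysis of an O-methyl fluorescein acyl ester substrate by the enzyme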
T5 sequence (P49327 whole entry): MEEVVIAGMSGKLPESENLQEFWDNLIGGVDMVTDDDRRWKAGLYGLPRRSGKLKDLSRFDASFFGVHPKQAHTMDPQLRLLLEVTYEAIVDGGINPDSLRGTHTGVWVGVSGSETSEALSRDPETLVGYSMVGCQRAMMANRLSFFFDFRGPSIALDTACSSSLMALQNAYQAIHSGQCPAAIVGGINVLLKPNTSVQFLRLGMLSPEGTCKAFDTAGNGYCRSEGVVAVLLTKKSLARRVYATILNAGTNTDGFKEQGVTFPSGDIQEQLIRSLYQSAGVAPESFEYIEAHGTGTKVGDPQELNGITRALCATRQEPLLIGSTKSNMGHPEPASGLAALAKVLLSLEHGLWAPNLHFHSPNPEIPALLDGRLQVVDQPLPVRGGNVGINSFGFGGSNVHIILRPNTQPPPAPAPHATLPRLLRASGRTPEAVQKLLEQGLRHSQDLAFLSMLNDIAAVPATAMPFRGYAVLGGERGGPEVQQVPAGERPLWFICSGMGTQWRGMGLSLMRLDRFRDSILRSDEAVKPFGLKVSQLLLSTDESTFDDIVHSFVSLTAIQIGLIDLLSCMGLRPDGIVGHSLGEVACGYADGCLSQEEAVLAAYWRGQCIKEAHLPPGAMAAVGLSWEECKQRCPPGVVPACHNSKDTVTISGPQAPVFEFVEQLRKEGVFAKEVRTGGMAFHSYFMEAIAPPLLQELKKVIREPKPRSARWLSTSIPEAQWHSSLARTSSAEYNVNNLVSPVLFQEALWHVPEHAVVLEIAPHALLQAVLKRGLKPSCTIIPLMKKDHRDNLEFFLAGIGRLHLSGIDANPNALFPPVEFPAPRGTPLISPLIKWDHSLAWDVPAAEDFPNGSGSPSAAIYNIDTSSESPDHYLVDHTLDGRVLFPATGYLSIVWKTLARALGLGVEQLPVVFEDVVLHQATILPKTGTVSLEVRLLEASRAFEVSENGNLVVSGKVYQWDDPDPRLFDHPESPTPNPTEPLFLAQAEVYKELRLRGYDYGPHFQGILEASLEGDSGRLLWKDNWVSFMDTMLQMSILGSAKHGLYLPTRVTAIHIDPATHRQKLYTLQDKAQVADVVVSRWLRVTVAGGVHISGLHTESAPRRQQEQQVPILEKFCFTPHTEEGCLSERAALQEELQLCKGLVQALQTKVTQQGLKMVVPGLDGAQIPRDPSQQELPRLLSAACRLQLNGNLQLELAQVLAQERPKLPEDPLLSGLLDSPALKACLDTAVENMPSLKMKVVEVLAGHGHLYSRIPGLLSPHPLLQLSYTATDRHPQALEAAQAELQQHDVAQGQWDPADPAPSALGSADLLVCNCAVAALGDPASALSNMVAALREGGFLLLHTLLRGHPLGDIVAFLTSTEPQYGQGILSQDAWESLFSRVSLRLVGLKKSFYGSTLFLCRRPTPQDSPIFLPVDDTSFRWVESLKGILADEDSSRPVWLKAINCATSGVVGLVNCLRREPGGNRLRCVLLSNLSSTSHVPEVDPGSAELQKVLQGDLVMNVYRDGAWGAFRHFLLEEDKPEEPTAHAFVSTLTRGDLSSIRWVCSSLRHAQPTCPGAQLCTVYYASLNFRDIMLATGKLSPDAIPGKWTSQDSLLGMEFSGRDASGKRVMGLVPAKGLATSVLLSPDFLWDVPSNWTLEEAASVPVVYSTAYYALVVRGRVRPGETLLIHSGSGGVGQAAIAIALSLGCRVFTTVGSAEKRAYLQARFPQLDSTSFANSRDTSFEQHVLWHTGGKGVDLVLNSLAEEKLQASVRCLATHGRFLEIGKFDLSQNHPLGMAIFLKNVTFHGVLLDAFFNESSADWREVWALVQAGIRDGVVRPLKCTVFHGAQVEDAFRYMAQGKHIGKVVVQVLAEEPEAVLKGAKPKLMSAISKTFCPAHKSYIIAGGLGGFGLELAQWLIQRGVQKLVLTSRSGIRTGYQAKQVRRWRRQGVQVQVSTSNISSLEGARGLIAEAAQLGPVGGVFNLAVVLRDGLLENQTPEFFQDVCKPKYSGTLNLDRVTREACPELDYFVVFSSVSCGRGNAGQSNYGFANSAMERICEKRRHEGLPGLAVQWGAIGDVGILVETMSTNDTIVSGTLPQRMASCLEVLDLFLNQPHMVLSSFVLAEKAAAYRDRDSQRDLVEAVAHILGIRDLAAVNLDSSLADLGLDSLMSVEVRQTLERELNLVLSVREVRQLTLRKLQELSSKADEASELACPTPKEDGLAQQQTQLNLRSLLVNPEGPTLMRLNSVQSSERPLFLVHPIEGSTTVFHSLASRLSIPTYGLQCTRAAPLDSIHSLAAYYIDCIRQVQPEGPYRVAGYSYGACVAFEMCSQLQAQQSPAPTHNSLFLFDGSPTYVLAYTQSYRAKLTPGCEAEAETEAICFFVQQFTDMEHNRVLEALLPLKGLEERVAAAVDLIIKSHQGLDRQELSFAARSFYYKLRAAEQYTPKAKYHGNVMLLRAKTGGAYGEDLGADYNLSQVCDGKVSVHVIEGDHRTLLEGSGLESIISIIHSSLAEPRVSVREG

[20] = molecular target: T5, Fatty acid synthase; assay: inhibition of human FAS-TE enzyme activity – biochemical, kinetic fluorescence intensity, dose response (AID 624326); assay type: functional;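 note: rate of fluorescence rise from hydrolysis of a fluorogenic O-methyl fluorescein ester substrate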

Cc1ccc(NC(=O)Cn2nc(C(=O)Nc3ccc(C)cc3)ccc2=O)cc1
IC50 [1]: 30.8 µM (active) | IC50 [2]: 18.3 µM (active)

CC1Cc2ccccc2N1C(=O)CSc1nnc(NC(=O)Cc2cccs2)s1 (stereo not drawn)
IC50 [3]: 34 µM (not active)

CC(C)N=C=NC(C)C
AC50 [4]: 35.5 µM (inconclusive)

Cc1cccc(C(=O)N2CCN(c3ccc(C(F)(F)F)cn3)CC2)c1C
EC50 [5]: 9.85 µM (active)

Cc1ccc(-c2noc(CCC(=O)N(C)c3ccccc3C)n2)cc1
EC50 [5]: 4.56 µM (active)

O=C(CN1CCN(c2ccccc2F)CC1)Nc1cccnc1Cl
EC50 [6]: > 71.5 µM (inactive)

CCc1ccccc1N(C)C(=O)CCc1nc(-c2ccc(C)cc2)no1
EC50 [5]: 5.38 µM (active)

COc1ccc(CSc2nnc(Cc3sc(-c4ccccc4)nc3-c3ccccc3)o2)cc1
EC50 [5]: 5.33 µM (active)

Cc1ccc(-c2csc3nc4cc(C(=O)NC5CCC(O)CC5)ccc4c(=O)n23)cc1 (stereo not drawn)
AC50 [7]: 3.96 µM (active)

CC1(c2ccc(Cl)cc2Cl)OCC(Cn2ccnc2)O1 (stereo not drawn)
EC50 [8]: 2.37 µM (active)

O=C(Nc1ccccc1C(=O)Nc1nnc(C(F)(F)F)s1)c1ccccc1
EC50 [9]: > 120 µM (not active) | EC50 [10]: > 120 µM (not active) | EC50 [11]: 19.3 µM (active) | EC50 [12]: 0.927 µM (active) | EC50 [13]: 2.53 µM (active) | CC50 [14]: 3.58 µM (active) | CC50 [15]: 3.9 µM (active) | CC50 [16]: > 20 µM (active) | IC50 [17]: 46.2 µM (inactive) | IC50 [18]: 15.3 µM (active) | IC50 [19]: 80 µM (inactive) | IC50 [20]: 23.5 µM (inactive)

Source: ChEMBL document CHEMBL1201862, “PubChem BioAssay data set” (2004)
